Like-named read-outs stand apart in the source and are kept apart here. Bridge positions count the residues as written; N and C are the ends. Square brackets hold non-standard residues; d marks the D form. Peptide text beside a SMILES is read from it. Oic = O=C(O)[C@@H]1C[C@@H]2CCCC[C@@H]2N1; 1Nal = N[C@@H](Cc1cccc2ccccc12)C(=O)O; 2Nal = N[C@@H](Cc1ccc2ccccc2c1)C(=O)O; hArg = N=C(N)NCCCC[C@H](N)C(=O)O; Cit = NC(=O)NCCC[C@H](N)C(=O)O; PEG = not defined here
Molecular target: T1, CGRP1 receptor (Homo sapiens, UniProt O60894+Q16602)
T1 construct: SK-N-MC cells express CRLR and RAMP1, which form CGRP1 receptor; endogenous in cells; host or cells: SK-N-MC human neuroblastoma cells
Test: in vitro CGRP1 receptor mediated cAMP assay in SK-N-MC cells
Type: cell-based
Method: The in vitro cAMP assay employed a human neuroblastoma-derived cell line (SK-N-MC). SK-N-MC cells express CRLR and RAMP1, which form CGRP1 receptor. CGRP1 receptor is a G-protein coupled receptor linked to the stimulatory G-protein, Gs. […] Briefly, two days before the assay, the cells were plated in 96-well plates in growth medium. On the day of the assay cells were rinsed with PBS followed by the addition of 60 μl of plasma free medium for 15 minutes at room temperature. […] The medium was then removed and the cells were lysed with 100 μl lysis buffer for 30 minutes at 37° C. for 30 minutes. Using a Tropix ELISA kit (Applied Biosystems, Foster City, Calif.), a cAMP-AP conjugate was diluted (1:100) and added (30 μl) to each well of a 96-well ELISA plate. An aliquot of the lysis buffer from the cell plate was then added to the ELISA plate followed by an aliquot of the cAMP antibody. This mixture was incubated for 1 hour at room temperature with gentle shaking. The ELISA plate was then washed 6× with wash buffer followed by the additions of a substrate enhancer. This mixture was incubated for 30 minutes at room temperature and then read on a MicroBeta Jet or EnVision plate reader. The results were analyzed using Prism (GraphPad).

[1] = Table 2C, unconjugated peptide, read-out: Peptide IC50

T1 sequence (Q16602 23-461): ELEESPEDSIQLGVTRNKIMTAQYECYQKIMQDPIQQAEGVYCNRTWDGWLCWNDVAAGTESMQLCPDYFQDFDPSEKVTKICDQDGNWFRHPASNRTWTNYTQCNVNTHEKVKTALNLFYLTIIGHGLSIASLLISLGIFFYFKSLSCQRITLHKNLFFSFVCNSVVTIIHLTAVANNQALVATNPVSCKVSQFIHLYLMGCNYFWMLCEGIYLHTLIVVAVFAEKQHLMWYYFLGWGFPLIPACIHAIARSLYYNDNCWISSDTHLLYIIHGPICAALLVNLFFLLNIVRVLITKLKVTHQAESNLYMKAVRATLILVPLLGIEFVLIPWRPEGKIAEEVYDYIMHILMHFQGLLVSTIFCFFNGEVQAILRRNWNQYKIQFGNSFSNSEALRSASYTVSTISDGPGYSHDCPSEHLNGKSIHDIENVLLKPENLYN
T1 sequence (O60894 27-148): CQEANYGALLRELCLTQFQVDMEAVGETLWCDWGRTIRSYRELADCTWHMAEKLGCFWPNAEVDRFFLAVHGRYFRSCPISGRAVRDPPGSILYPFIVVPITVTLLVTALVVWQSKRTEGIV

| Molecule | IC50 [1] [nM] | antagonist activity in cAMP assay, in words | further results |
| --- | --- | --- | --- |
| CC(=O)N[C@@H](Cc1c[nH]c2ccccc12)C(=O)N[C@H](C(=O)N[C@H](C(=O)N[C@@H](Cc1c[nH]cn1)C(=O)N[C@@H](CCCNC(N)=O)C(=O)N[C@@H](CC(C)C)C(=O)N[C@@H](C)C(=O)NCC(=O)N[C@@H](CC(C)C)C(=O)N[C@@H](CC(C)C)C(=O)N[C@@H](CO)C(=O)N[C@@H](CCCNC(N)=O)C(=O)N[C@@H](CO)C(=O)NCC(=O)NCC(=O)N[C@H](C(=O)N[C@H](C(=O)N[C@@H](CCCCNC(=N)N)C(=O)N[C@@H](CCCCN)C(=O)N[C@@H](CC(N)=O)C(=O)N[C@@H](Cc1ccccc1)C(=O)N[C@H](C(=O)N1CCC[C@H]1C(=O)N[C@H](C(=O)N[C@@H](CC(=O)O)C(=O)N[C@H](C(=O)NCC(=O)NC1(C(=O)N[C@@H](Cc2ccccc2)C(=O)N[C@@H](C)C(=O)N[C@@H](Cc2ccccc2)C(N)=O)Cc2ccccc2C1)C(C)C)[C@@H](C)O)C(C)C)C(C)C)C(C)C)[C@@H](C)O)C(C)C [compound 669] |  |  | IC50 (Table 2A, read-out: IC50): 33.2 to 262 nM |
| SEQ ID NO:36 (Ac-WVTHRLAGLLSQSGGVVRC(PEG)NFVPTDVGPFAF-NH2; reading uncertain) |  |  | loss in antagonist activity on PEGylation relative to the unconjugated parent peptide (cAMP assay): greater than 12 fold |
| SEQ ID NO:23 (WVTHRLAGLLSXSGGVVRKNFVPTDVGPFAF; CGRP peptide; MOD_RES (1)..(1): …ON; MISC_FEATURE (12)..(12): xaa=homoarginine; MOD_RES (31)..(31): AMIDATION) |  | well tolerated |  |
| Ac-WVTHRLAGLLSRSGGVCRNNFVPTDVGPFAF-NH2 [compound 820] |  |  | IC50 (Table 2D, read-out: IC50): 0.36 nM |
| SEQ ID NO:22 (WVTHXLAGLLSRSGGVVRKNFVPTDVGPFAF; CGRP peptide; MOD_RES (1)..(1): …ON; MISC_FEATURE (5)..(5): xaa=homoarginine; MISC_FEATURE (19)..(19): PEGylated; MOD_RES (31)..(31): AMIDATION) |  | retaining their CGRP1 receptor antagonist activity |  |
| SEQ ID NO:35 (Ac-WVTHRLAGLLSQSGGVVRCNFVPTDVGPFAF-NH2) |  | well tolerated |  |
| H-CGGGGGGGVTHRLAGLLSRSGGVVKNNFVPTDVGPFAF-NH2 [compound 3] |  |  | IC50 (Table 3, unconjugated CGRP peptide analogs, n = 2-4, read-out: IC50): 0.72 nM |
| SEQ ID NO:24 (WVTHRLAGLLSXSGGVVRKNFVPTDVGPFAF; CGRP peptide; MOD_RES (1)..(1): …ON; MISC_FEATURE (12)..(12): xaa=homoarginine; MISC_FEATURE (19)..(19): PEGylated; MOD_RES (31)..(31): AMIDATION) |  | retaining their CGRP1 receptor antagonist activity |  |
| SEQ ID NO:29 (WVTHRLAGLLSXSGGVVRKNFVPTDVGPFAF; CGRP peptide; MOD_RES (1)..(1): …ON; MISC_FEATURE (12)..(12): xaa=citrulline; MOD_RES (31)..(31): AMIDATION) |  | well tolerated |  |
| CC(=O)N[C@@H](Cc1c[nH]c2ccccc12)C(=O)N[C@H](C(=O)N[C@H](C(=O)N[C@@H](Cc1c[nH]cn1)C(=O)N[C@@H](CCCNC(N)=O)C(=O)N[C@@H](CC(C)C)C(=O)N[C@@H](C)C(=O)NCC(=O)N[C@@H](CC(C)C)C(=O)N[C@@H](CC(C)C)C(=O)N[C@@H](CO)C(=O)N[C@@H](CCCNC(N)=O)C(=O)N[C@@H](CO)C(=O)NCC(=O)NCC(=O)N[C@H](C(=O)N[C@H](C(=O)N[C@@H](CCCCNC(=N)N)C(=O)N[C@@H](CCCCN)C(=O)N[C@@H](CC(N)=O)C(=O)N[C@@H](Cc1ccc2ccccc2c1)C(=O)N[C@H](C(=O)N1CCC[C@H]1C(=O)N[C@H](C(=O)N[C@@H](CC(=O)O)C(=O)N[C@H](C(=O)NCC(=O)N1[C@H](C(=O)N[C@@H](Cc2ccccc2)C(=O)N[C@@H](C)C(=O)N[C@@H](Cc2ccccc2)C(N)=O)C[C@@H]2CCCC[C@@H]21)C(C)C)[C@@H](C)O)C(C)C)C(C)C)C(C)C)[C@@H](C)O)C(C)C [compound 137] (Ac-WVTH[Cit]LAGLLS[Cit]SGGVV[hArg]KN[2Nal]VPTDVG[Oic]FAF-NH2) |  |  | IC50 (Table 2A, read-out: IC50): 2.66 nM |

Now from value to molecule, other results behind:

| IC50 [1] [nM] | Molecule | antagonist activity in cAMP assay, in words | further results |
| --- | --- | --- | --- |
| 0.85 | CC(=O)N[C@@H](Cc1c[nH]c2ccccc12)C(=O)N[C@H](C(=O)N[C@H](C(=O)N[C@@H](Cc1c[nH]cn1)C(=O)N[C@@H](CCCNC(N)=O)C(=O)N[C@@H](CC(C)C)C(=O)N[C@@H](C)C(=O)NCC(=O)N[C@H]1CCC(=O)NCCCC[C@@H](C(=O)NCC(=O)NCC(=O)N[C@H](C(=O)N[C@H](C(=O)N[C@@H](CCCCNC(=N)N)C(=O)N[C@@H](CCCCN)C(=O)N[C@@H](CC(N)=O)C(=O)N[C@@H](Cc2ccccc2)C(=O)N[C@H](C(=O)N2CCC[C@H]2C(=O)N[C@H](C(=O)N[C@@H](CC(=O)O)C(=O)N[C@H](C(=O)NCC(=O)N2[C@H](C(=O)N[C@@H](Cc3cccc4ccccc34)C(=O)N[C@@H](C)C(=O)N[C@@H](Cc3ccccc3)C(N)=O)C[C@@H]3CCCC[C@@H]32)C(C)C)[C@@H](C)O)C(C)C)C(C)C)C(C)C)NC(=O)[C@H](CCCCNC(=N)N)NC(=O)[C@H](CO)NC(=O)[C@H](CC(C)C)NC1=O)[C@@H](C)O)C(C)C [compound 944] (Ac-WVTH[Cit]LAGELS[hArg]KGGVV[hArg]KNFVPTDVG[Oic][1Nal]AF-NH2; lactam 9-13) |  |  |
| 2.31 | CC(=O)N[C@@H](Cc1cccc2ccccc12)C(=O)N[C@H](C(=O)N[C@@H](CCC(=O)O)C(=O)N[C@@H](Cc1c[nH]cn1)C(=O)N[C@@H](CCCCNC(=N)N)C(=O)N[C@@H](CC(C)C)C(=O)N[C@@H](CCCCN)C(=O)NCC(=O)N[C@@H](CC(C)C)C(=O)N[C@@H](CC(C)C)C(=O)N[C@@H](CO)C(=O)N[C@@H](CCCNC(N)=O)C(=O)N[C@@H](CO)C(=O)NCC(=O)N1CC[C@H]1C(=O)N[C@H](C(=O)N[C@H](C(=O)N[C@@H](CCCCNC(=N)N)C(=O)N[C@@H](CCCCN)C(=O)N[C@@H](CC(N)=O)C(=O)N[C@@H](Cc1ccccc1)C(=O)N[C@H](C(=O)N1CCC[C@H]1C(=O)N[C@H](C(=O)N[C@@H](CC(=O)O)C(=O)N[C@H](C(=O)NCC(=O)N1CCC[C@H]1C(=O)N[C@@H](Cc1ccccc1)C(=O)N[C@@H](C)C(=O)N[C@@H](Cc1ccccc1)C(N)=O)C(C)C)[C@@H](C)O)C(C)C)C(C)C)C(C)C)C(C)C [compound 910] |  |  |
| 0.83 | CC(=O)N[C@@H](Cc1c[nH]c2ccccc12)C(=O)N[C@H](C(=O)N[C@H](C(=O)N[C@@H](Cc1c[nH]cn1)C(=O)N[C@@H](CCCCNC(=N)N)C(=O)N[C@@H](CC(C)C)C(=O)N[C@H]1CCC(=O)NCCCC[C@@H](C(=O)N[C@@H](CCCNC(N)=O)C(=O)N[C@@H](CO)C(=O)NCC(=O)NCC(=O)N[C@H](C(=O)N[C@H](C(=O)N[C@@H](CCCCNC(=N)N)C(=O)N[C@@H](CCCCN)C(=O)N[C@@H](CC(N)=O)C(=O)N[C@@H](Cc2ccccc2)C(=O)N[C@H](C(=O)N2CCC[C@H]2C(=O)N[C@H](C(=O)N[C@@H](CC(=O)O)C(=O)N[C@H](C(=O)NCC(=O)N2[C@H](C(=O)N[C@@H](Cc3ccccc3)C(=O)N[C@@H](C)C(=O)N[C@@H](Cc3ccccc3)C(N)=O)C[C@@H]3CCCC[C@@H]32)C(C)C)[C@@H](C)O)C(C)C)C(C)C)C(C)C)NC(=O)[C@H](CC(C)C)NC(=O)[C@H](CC(C)C)NC(=O)CNC1=O)[C@@H](C)O)C(C)C [compound 942] (Ac-WVTH[hArg]LEGLLK[Cit]SGGVV[hArg]KNFVPTDVG[Oic]FAF-NH2; lactam 7-11) |  |  |
| 1.42 | Ac-WVTHRLAGLLSRPGGVVRKNFVPTDVGPFAF-NH2 [compound 860] |  |  |
| 0.44 | CC(=O)N[C@@H](Cc1c[nH]c2ccccc12)C(=O)N[C@H](C(=O)N[C@H](C(=O)N[C@@H](Cc1c[nH]cn1)C(=O)N[C@@H](CCCCNC(=N)N)C(=O)N[C@@H](CC(C)C)C(=O)N[C@@H](C)C(=O)NCC(=O)N[C@@H](CC(C)C)C(=O)N[C@@H](CC(C)C)C(=O)N[C@@H](CO)C(=O)N[C@@H](CCCNC(=N)N)C(=O)N[C@@H](CO)C(=O)NCC(=O)NCC(=O)N[C@H](C(=O)N[C@H](C(=O)N[C@@H](CCCNC(=N)N)C(=O)N[C@@H](CCCCN)C(=O)N[C@@H](CC(N)=O)C(=O)N[C@@H](Cc1ccccc1)C(=O)N[C@H](C(=O)N1CCC[C@H]1C(=O)N[C@H](C(=O)N[C@@H](CC(=O)O)C(=O)N[C@H](C(=O)NCC(=O)N1CCC[C@H]1C(=O)N[C@@H](Cc1ccccc1)C(=O)N[C@@H](C)C(=O)N[C@@H](Cc1ccccc1)C(N)=O)C(C)C)[C@@H](C)O)C(C)C)C(C)C)C(C)C)[C@@H](C)O)C(C)C [compound 865] |  |  |
| 1.28 | CC(=O)N[C@@H](Cc1c[nH]c2ccccc12)C(=O)N[C@H](C(=O)N[C@H]1CCC(=O)NCCCC[C@@H](C(=O)NCC(=O)N[C@@H](CC(C)C)C(=O)N[C@@H](CC(C)C)C(=O)N[C@@H](CO)C(=O)N[C@@H](CCCNC(N)=O)C(=O)N[C@@H](CO)C(=O)NCC(=O)NCC(=O)N[C@H](C(=O)N[C@H](C(=O)N[C@@H](CCCCNC(=N)N)C(=O)N[C@@H](CCCCN)C(=O)N[C@@H](CC(N)=O)C(=O)N[C@@H](Cc2ccccc2)C(=O)N[C@H](C(=O)N2CCC[C@H]2C(=O)N[C@H](C(=O)N[C@@H](CC(=O)O)C(=O)N[C@H](C(=O)NCC(=O)N2CCC[C@H]2C(=O)N[C@@H](Cc2ccccc2)C(=O)N[C@@H](C)C(=O)N[C@@H](Cc2ccccc2)C(N)=O)C(C)C)[C@@H](C)O)C(C)C)C(C)C)C(C)C)NC(=O)[C@H](CC(C)C)NC(=O)[C@H](CCCCNC(=N)N)NC(=O)[C@H](Cc2c[nH]cn2)NC1=O)C(C)C [compound 908] (Ac-WVEH[hArg]LKGLLS[Cit]SGGVV[hArg]KNFVPTDVGPFAF-NH2; lactam 3-7) |  |  |

— US8168592B2 (Amgen Inc., priority 2005, dated 2012)
